From patent US7238697B2, “Pyridylpyrimidines for use as pesticides” (Bayer CropScience AG, priority 2001, dated 2007)
Read-outs that look alike come from different tables or passages of the source.

How the values were obtained:
Format in all cases: in vivo
[1] = system: cotton aphid (Aphis gossypii); assay: Aphis gossypii test (cotton leaves dipped); conditions: 200 ppm
Protocol: To produce a suitable preparation of active compound, 1 part by weight of active compound is mixed with the stated amounts of solvent and emulsifier, and the concentrate is diluted with emulsifier-containing water to the desired concentration. Cotton leaves (Gossypium hirsutum) which are heavily infested by the cotton aphid (Aphis gossypii) are treated by being dipped into the preparation of active compound of the desired concentration. After the desired period of time, the kill in % is determined. 100% means that all aphids have been killed; 0% means that none of the aphids have been killed.

[2] = system: thrips (Franklinella occidentalis); assay: Franklinella test (cucumber plants sprayed); conditions: 1000 ppm
Protocol: To product a suitable preparation of active compound, 1 part by weight of active compound is mixed with the stated amounts of solvent and emulsifier, and the concentrate is diluted to the desired concentration.
Cucumber plants (Cucumis sativus) which are heavily infested by all stages of thrips (Franklinella occidentalis) are sprayed with a preparation of active compound of the desired concentration.
After the desired period of time, the effect in % is determined. 100% means that all thrips have been killed; 0% means that none of the thrips have been killed.

Meloidogyne incognita = assay: Meloidogyne test (gall formation on lettuce roots); conditions: 336 h, after 14 d, read-out: Kill rate in % after 14 d
Protocol: To produce a suitable preparation of active compound, 1 part by weight of active compound is mixed with the stated amounts of solvent and emulsifier, and the concentrate is diluted with water to the desired concentration. Vessels are filled with sand, solution of active compound, Meloidogyne incognita egg/larvae suspension and lettuce seeds. The lettuce seeds germinate and the plants develop. On the roots, galls are formed. After the desired period of time, the nematicidal action is determined in % by the gall formation. 100% means that no galls were found; 0% means that the number of galls on the treated plants corresponds to that of the untreated control.

[3] = system: peach aphids (Myzus persicae); assay: Myzus test (cabbage leaves dipped); conditions: 144 h, after 6 d, read-out: Kill rate in % after 6 d; for pest or weed control at 500 ppm: solvent 7 parts DMF, emulsifier 2 parts (Table D-2)
Protocol: To produce a suitable preparation of active compound, 1 part by weight of active compound is mixed with the stated amounts of solvent and emulsifier, and the concentrate is diluted with emulsifier-containing water to the desired concentration. Cabbage leaves (Brassica oleracea) which are heavily infested by peach aphids (Myzus persicae) are treated by being dipped into the preparation of the active compound of the desired concentration. After the desired period of time, the kill in % is determined. 100% means that all aphids have been killed; 0% means that none of the aphids has been killed.

[4] = system: larvae of the mustard beetle (Phaedon cochleariae); assay: Phaedon larvae test (cabbage leaves dipped)
Protocol: To produce a suitable preparation of active compound, 1 part by weight of active compound is mixed with the stated amounts of solvent and emulsifier, and the concentrate is diluted with emulsifier-containing water to the desired concentration. Cabbage leaves (Brassica oleracea) are treated by being dipped into the preparation of active compound of the desired concentration and are populated with larvae of the mustard beetle (Phaedon cochleariae) while the leaves are still moist. After the desired period of time, the kill in % is determined. 100% means that all beetle larvae have been killed; 0% means that none of the beetle larvae have been killed.

[5] = system: caterpillars of the army worm (Spodoptera frugiperda); assay: Spodoptera frugiperda test (cabbage leaves dipped); conditions: 500 ppm, solvent 7 parts DMF, emulsifier 2 parts
Protocol: To produce a suitable preparation of active compound, 1 part by weight of active compound is mixed with the stated amounts of solvent and emulsifier, and the concentrate is diluted with emulsifier-containing water to the desired concentration. Cabbage leaves (Brassica oleracea) are treated by being dipped into the preparation of active compound of the desired concentrated and are populated with caterpillars of the army worm (Spodoptera frugiperda) while the leaves are still moist. After the desired period of time, the kill in % is determined. 100% means that all caterpillars have been killed; 0% means that none of the caterpillars has been killed.

[6] = solvent 30 parts DMF, emulsifier 1 part (Table C-1)
[7] = solvent 7 parts DMF, emulsifier 2 parts (Table C-2)
[8] = solvent 30 parts DMF, emulsifier 1 part (Table D-1)
[9] = 500 ppm, solvent 7 parts DMF, emulsifier 2 parts (Table E-2)

## COC(=O)CSc1nccc(-c2ccccn2)n1 [drawing 398]
[1]
  Kill rate in % after 6 d: 85%

## CCCOC(=O)CSc1nccc(-c2ccccn2)n1 [drawing 399]
[1]
  Kill rate in % after 6 d: 85%

## O=C(CSc1nccc(-c2ccccn2)n1)OC1CCCCC1 [drawing 400]
[1]
  Kill rate in % after 6 d: 90%

## COC(=O)CSc1nccc(-c2ccccn2)n1 [drawing 401]
[2]
  Kill rate in % after 7 d: 99%

## CCOC(=O)CSc1nccc(-c2ccccn2)n1 [drawing 402]
Meloidogyne incognita; [6]
  pest or weed control at 20 ppm: 90%

## COCCOC(=O)CSc1nccc(-c2ccccn2)n1 [drawing 403]
Meloidogyne incognita; [6]
  pest or weed control at 20 ppm: 90%

## CC(C)=NNC(=O)CSc1nccc(-c2ccccn2)n1 [drawing 404]
Meloidogyne incognita; [6]
  pest or weed control at 20 ppm: 98%

## COC(=O)CCCSc1nccc(-c2ccccn2)n1 [drawing 405]
Meloidogyne incognita; [6]
  pest or weed control at 20 ppm: 90%

## COC(=O)CSc1nc(-c2ccccn2)c2cc(Cl)ccc2n1 [drawing 406]
Meloidogyne incognita; [6]
  pest or weed control at 20 ppm: 98%

## COC(=O)CSc1nc(-c2ccccn2)cc(-c2ccccn2)n1 [drawing 407]
Meloidogyne incognita; [6]
  pest or weed control at 20 ppm: 95%

## CCOC(=O)/C=C/CSc1nccc(-c2ccccn2)n1 [drawing 408]
Meloidogyne incognita; [6]
  pest or weed control at 20 ppm: 100%

## CCOC(=O)C(C)OC(=O)CSc1nccc(-c2ccccn2)n1 (centres unmarked) [drawing 409]
Meloidogyne incognita; [7]
  pest or weed control at 20 ppm: 80%

## COC(=O)CSc1nc(-c2ccccc2)cc(-c2ccccn2)n1 [drawing 410]
Meloidogyne incognita; [7]
  pest or weed control at 20 ppm: 100%

## CCOC(=O)CSc1nccc(-c2ccc(CC)cn2)n1 [drawing 411]
Meloidogyne incognita; [7]
  pest or weed control at 20 ppm: 90%

## CCOC(=O)CSc1nccc(-c2ccc(C)cn2)n1 [drawing 412]
Meloidogyne incognita; [7]
  pest or weed control at 20 ppm: 90%

## CCOC(=O)CSc1nccc(-c2ccc(C(F)(F)F)cn2)n1 [drawing 413]
Meloidogyne incognita; [7]
  pest or weed control at 20 ppm: 100%

## CC(C)(C)n1nnc(CSc2nccc(-c3ccccn3)n2)n1 [drawing 414]
Meloidogyne incognita; [7]
  pest or weed control at 20 ppm: 90%

## NC(=O)CSc1nccc(-c2ccccn2)n1 [drawing 422]
[3]; [8]
  pest or weed control at 1000 ppm: 95%

## COC(=O)CCCSc1nccc(-c2ccccn2)n1 [drawing 423]
[3]; [8]
  pest or weed control at 1000 ppm: 100%

## O=C(O)CSc1nccc(-c2ccccn2)n1 [drawing 424]
[3]; [8]
  pest or weed control at 1000 ppm: 100%

## COC(=O)CC(=O)CSc1nccc(-c2ccccn2)n1 [drawing 427]
[3]; 200 ppm, solvent 30 parts DMF, emulsifier 1 part (Table D-1)
  pest or weed control at 200 ppm: 95%

## CCC1(COC(=O)CSc2nccc(-c3ccccn3)n2)CCO1 (centres unmarked) [drawing 428]
[3]
  pest or weed control at 500 ppm: 98%

## CCOC(=O)C1CC1COC(=O)CSc1nccc(-c2ccccn2)n1 (centres unmarked) [drawing 429]
[3]
  pest or weed control at 500 ppm: 98%

## COCN(C)C(=O)COC(=O)CSc1nccc(-c2ccccn2)n1 [drawing 430]
[3]
  pest or weed control at 500 ppm: 98%

## O=C(CSc1nccc(-c2ccccn2)n1)OCC(F)=C(Cl)Cl [drawing 431]
[3]
  pest or weed control at 500 ppm: 100%

## O=C(CSc1nccc(-c2ccccn2)n1)OC1CS(=O)(=O)C1 [drawing 432]
[3]
  pest or weed control at 500 ppm: 100%

## CC(=O)NCC(C)OC(=O)CSc1nccc(-c2ccccn2)n1 (centres unmarked) [drawing 433]
[3]
  pest or weed control at 500 ppm: 95%

## CC(C)OC(=O)C(C)OC(=O)CSc1nccc(-c2ccccn2)n1 (centres unmarked) [drawing 434]
[3]
  pest or weed control at 500 ppm: 95%

## O=C(CSc1nccc(-c2ccccn2)n1)OC1CC(F)(F)C1(F)F (centres unmarked) [drawing 435]
[3]
  pest or weed control at 500 ppm: 100%

## O=C(CSc1nccc(-c2ccccn2)n1)OC1COC1 [drawing 436]
[3]
  pest or weed control at 500 ppm: 95%

## NC(=O)CCSc1nccc(-c2ccccn2)n1 [drawing 437]
[3]
  pest or weed control at 500 ppm: 80%

## CC(C)(C)SC(=O)CSc1nccc(-c2ccccn2)n1 [drawing 438]
[3]
  pest or weed control at 500 ppm: 95%

## CCOC(=O)CSc1nccc(-c2cc(OC)ccn2)n1 [drawing 439]
[3]
  pest or weed control at 500 ppm: 90%

## CCOC(=O)CSc1nccc(-c2ccc(C)cn2)n1 [drawing 440]
[3]
  pest or weed control at 500 ppm: 98%

## O=C(CSc1nccc(-c2ccccn2)n1)N/N=C/c1ccc([N+](=O)[O-])cc1 [drawing 441]
[4]; 1000 ppm, solvent 30 parts DMF, emulsifier 1 part (Table E-1)
  Kill rate in % after 7 d: 100%

## CCOC(=O)CSc1nccc(-c2ccc(C(F)(F)F)cn2)n1 [drawing 442]
[4]; [9]
  Kill rate in % after 7 d: 100%

## CCOC(=O)CSc1nccc(-c2ccc(Cl)cn2)n1 [drawing 443]
[4]; [9]
  Kill rate in % after 7 d: 100%

## CC(C)(C)n1nnc(CSc2nccc(-c3ccccn3)n2)n1 [drawing 444]
[4]; [9]
  Kill rate in % after 7 d: 100%

## CCOC(=O)CSc1nc(C)cc(-c2ccccn2)n1 [drawing 445]
[5]
  Kill rate in % after 7 d: 100%

## CCOC(=O)CSc1nccc(-c2ccc(C(F)(F)F)cn2)n1 [drawing 446]
[5]
  Kill rate in % after 7 d: 100%

## CC(C)(C)n1nnc(CSc2nccc(-c3ccccn3)n2)n1 [drawing 447]
[5]
  Kill rate in % after 7 d: 100%
